Test results: patent publication US20120202690A1, “HERBICIDAL COMPOUNDS” (SYNGENTA LIMITED, priority 2009, published 2012)

Legend:
Format in all cases: in vivo
[1] = system: Ipomoea hederaceae (IPOHE); assay: Post-emergence biological efficacy, glasshouse, 500 or 1000 g/ha, evaluated after 13 days (100=total damage to plant; 0=no damage to plant); conditions: Ipomoea, 312 h, rate 1,000 g/ha, read-out: Percentage damage caused to weed species, post-emergence, IPOHE
Summary of the method: (§1)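 Weed seeds were sown in standard soil in pots and the plants treated post-emergence. Afterwards they were grown on in a controlled glasshouse at 24/16° C. day/night with 14 hours light and 65% humidity, and watered twice daily.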

[2] = system: Echinochloa crusgaffi (ECHCG); assay: as above; conditions: Echinochloa, 312 h, rate 1,000 g/ha, read-out: Percentage damage caused to weed species, post-emergence, ECHCG
Summary of the method: as §1

Solanum nigrum (SOLNI) [3] = assay: as above; conditions: Solanum nigrum, 312 h, rate 1,000 g/ha, read-out: Percentage damage caused to weed species, post-emergence, SOLNI
Summary of the method: as §1

[4] = system: Alopecurus myosuroides (ALOMY); assay: as above; conditions: Alopecurus myosuroides, 312 h, rate 1,000 g/ha, read-out: Percentage damage caused to weed species, post-emergence, ALOMY
Summary of the method: as §1

Setaria faberi (SETFA) [5] = assay: as above; conditions: Setaria faberi, 312 h, rate 1,000 g/ha, read-out: Percentage damage caused to weed species, post-emergence, SETFA
Summary of the method: as §1

[6] = system: Amaranthus retroflexus (AMARE); assay: as above; conditions: Amaranthus retroflexus, 312 h, rate 1,000 g/ha, read-out: Percentage damage caused to weed species, post-emergence, AMARE
Summary of the method: as §1

[7] = system: Ipomoea hederaceae (IPOHE); assay: Pre-emergence biological efficacy, glasshouse, 1000 g/ha, evaluated after 13 days (100=total damage to plant; 0=no damage to plant); conditions: Ipomoea, 312 h, rate 1,000 g/ha, read-out: Percentage damage caused to weed species, pre-emergence, IPOHE
Summary of the method: (§2)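 Sowing: standard soil, pots. Growth: glasshouse, 24/16° C. day/night, 14 hours light, 65% humidity. Watering: twice daily.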

[8] = system: Echinochloa crus-galli (ECHCG); assay: as above; conditions: Echinochloa crus-galli, 312 h, rate 1,000 g/ha, read-out: Percentage damage caused to weed species, pre-emergence, ECHCG
Summary of the method: as §2

Solanum nigrum (SOLNI) [9] = assay: as above; conditions: Solanum nigrum, 312 h, rate 1,000 g/ha, read-out: Percentage damage caused to weed species, pre-emergence, SOLNI
Summary of the method: as §2

[10] = system: Alopecurus myosuroides (ALOMY); assay: as above; conditions: Alopecurus myosuroides, 312 h, rate 1,000 g/ha, read-out: Percentage damage caused to weed species, pre-emergence, ALOMY
Summary of the method: as §2

Setaria faberi (SETFA) [11] = assay: as above; conditions: Setaria faberi, 312 h, rate 1,000 g/ha, read-out: Percentage damage caused to weed species, pre-emergence, SETFA
Summary of the method: as §2

[12] = system: Amaranthus retroflexus (AMARE); assay: as above; conditions: Amaranthus retroflexus, 312 h, rate 1,000 g/ha, read-out: Percentage damage caused to weed species, pre-emergence, AMARE
Summary of the method: as §2

Structure (SMILES)	pest or weed control at 1000 g/ha [1]	pest or weed control at 1000 g/ha [2]	pest or weed control at 1000 g/ha (Solanum nigrum (SOLNI) [3])	pest or weed control at 1000 g/ha [4]	pest or weed control at 1000 g/ha (Setaria faberi (SETFA) [5])	pest or weed control at 1000 g/ha [6]	pest or weed control at 1000 g/ha [7]	pest or weed control at 1000 g/ha [8]	pest or weed control at 1000 g/ha (Solanum nigrum (SOLNI) [9])	pest or weed control at 1000 g/ha [10]	pest or weed control at 1000 g/ha (Setaria faberi (SETFA) [11])	pest or weed control at 1000 g/ha [12]
COc1c(Cl)ccc(-c2cc3[nH]cc(C)c3c(C(=O)OCc3ccccc3)n2)c1F [Compound 22-86, 4-Benzyloxycarbonyl-6-(4-chloro-2-fluoro-3-methoxyphenyl)-3-methyl-1H-pyrrolo[3,2-c]pyridine]	40%	10%	70%	10%	0%	40%	0%	0%	10%	0%	0%	0%
COC(=O)c1nc(-c2ccc(Cl)c(OC)c2F)nc2c1c(C)cn2S(C)(=O)=O [Compound 18-64, 2-(4-chloro-2-fluoro-3-methoxyphenyl)-4-methoxycarbonyl-5-methyl-7-methylsulphonyl-7H-pyrrolo[2,3-d]pyrimidine]	40%	10%	40%	10%	30%	20%	0%	0%	0%	0%	0%	0%
COc1c(Cl)ccc(-c2nc(C(=O)O)c3cc(C)[nH]c3n2)c1F [Compound 1-65]	60%	40%	60%	0%	10%	40%	0%	0%	0%	0%	0%	0%
COC(=O)c1nc(-c2ccc(Cl)c(N(C)C)c2F)nc2[nH]cc(C)c12 [Compound 1-116, 2-(4-Chloro-3-dimethylamino-2-fluorophenyl)-4-methoxycarbonyl-5-methyl-7H-pyrrolo[2,3-d]pyrimidine]	50%	0%	40%	0%	20%	50%	0%	0%	0%	0%	0%	0%
COC(=O)c1nc(-c2ccc(Cl)c(F)c2)nc2[nH]cc(C)c12 [Compound 1-20, 2-(4-Chloro-3-fluorophenyl)-4-methoxycarbonyl-5-methyl-7H-pyrrolo[2,3-d]pyrimidine]	60%	0%	70%	0%	0%	70%	0%	0%	0%	0%	0%	50%
COC(=O)c1nc(C2CC2)nc2[nH]cc(C)c12 [Compound 1-4, 2-Cyclopropyl-4-methoxycarbonyl-5-methyl-7H-pyrrolo[2,3-d]pyrimidine]	70%	70%	90%	10%	80%	100%	60%	30%	90%	10%	30%	90%
